From patent publication US20260200939A1, “MOLECULAR GLUE DEGRADER COMPOUNDS AND USES THEREOF” (Novartis AG, priority 2022, published 2026)
Like-named read-outs stand apart in the source and are kept apart here.

Target: T1, Recombinant RNF126 (Homo sapiens, UniProt Q9BV68)
T1 construct: FLAG (C); host or cells: HEK293T
Test: RNF126 Binding Assay, gel-based ABPP
Experimental: RNF126 mammalian expression plasmid with a C-terminal FLAG tag was purchased from Origene (Origene Technologies Inc., RC204986). The plasmid was transformed into NEB 5-alpha Competent E. coli (DH5) cells (NEB product no. C2987H). The following day, a single transformed colony was used to inoculate 50 ml of nutrient rich LB medium containing kanamycin (50 μg/ml) and was incubated at 37° C. overnight, with agitation (250 rpm). A Miniprep (Qiagen) kit was used to isolate the plasmid before sequence verification with appropriate primers.
HEK293T cells were grown to 30-50% confluency in DMEM supplemented with 10% FBS (Corning) and maintained at 37° C. with 5% CO2. Immediately before transfection, media was replaced with DMEM containing 5% FBS. Each plate was transfected with 24 μg of overexpression plasmid with 24 μL Lipofectamine 3000 (Invitrogen) in Opti-MEM. After 48 h cells were collected in PBS, lysed by sonication, and batch bound with anti-DYKDDDDK resin (GenScript, L00432) for 2 hours. Lysate and resin were washed with PBS and eluted with 133.33 μg/ml 3×FLAG peptide (ApexBio, A6001) in PBS. Five elutions were performed for 15 minutes each. Elutions were concentrated and the protein was stored in PBS. Concentration and purity was determined using the BCA assay and western blotting.
Recombinant RNF126 ([…]) was pre-treated with either DMSO vehicle or covalent ligand at 37° C. for 30 min in 25 μL of PBS, and subsequently treated with of IA-Rhodamine (concentrations designated in figure legends) (Setareh Biotech) at room temperature for 1 h in the dark. The reaction was stopped by addition of 4×reducing Laemmli SDS sample loading buffer (Alfa Aesar). After boiling at 95° C. for 5 min, the samples were separated on precast 4-20% Criterion TGX gels (Bio-Rad). Probe-labeled proteins were analyzed by in-gel fluorescence using a ChemiDoc MP (Bio-Rad).

[1] = range with lower bound in nM and upper bound in μM

T1 sequence (Q9BV68 whole entry): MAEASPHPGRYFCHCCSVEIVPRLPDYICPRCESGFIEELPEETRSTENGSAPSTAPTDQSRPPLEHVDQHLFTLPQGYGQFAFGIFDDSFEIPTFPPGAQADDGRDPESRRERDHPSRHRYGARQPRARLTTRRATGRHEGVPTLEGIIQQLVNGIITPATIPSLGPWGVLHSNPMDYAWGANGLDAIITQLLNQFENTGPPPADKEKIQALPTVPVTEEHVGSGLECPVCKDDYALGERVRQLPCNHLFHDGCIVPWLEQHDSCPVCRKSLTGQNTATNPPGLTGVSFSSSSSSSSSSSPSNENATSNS

| Structure (SMILES) | IC50 [nM] | IC50 [1] [nM] |
| --- | --- | --- |
| COc1ccc(C(=O)/C(C)=C/C(=O)N2CCNCC2)cc1 [Compound 145, (E)-1-(4-methoxyphenyl)-2-methyl-4-(piperazin-1-yl)but-2-ene-1,4-dione] | > 50000 |  |
| COc1ccccc1C(=O)/C=C/C(=O)N1CCNCC1 [Compound 147, (E)-1-(2-methoxyphenyl)-4-(piperazin-1-yl)but-2-ene-1,4-dione] | 1000 to 10000 |  |
| O=C(/C=C/C(=O)N1CCNCC1)c1ccccc1F [Compound 149, (E)-1-(2-fluorophenyl)-4-(piperazin-1-yl)but-2-ene-1,4-dione] | 1000 to 10000 |  |
| O=C(/C=C/C(=O)N1CCNCC1)c1ccc(F)cc1 [Compound 150, (E)-1-(4-fluorophenyl)-4-(piperazin-1-yl)but-2-ene-1,4-dione] | 1000 to 10000 |  |
| O=C(/C=C/C(=O)N1CCNCC1)c1ccccc1 [Compound 152, (E)-1-phenyl-4-(piperazin-1-yl)but-2-ene-1,4-dione] |  | 100 to 1000 |
| COc1ccc(C(=O)/C=C(\C#N)C(=O)N2CCN(C(=O)OC(C)(C)C)CC2)cc1 [Compound 153, tert-butyl (E)-4-(2-cyano-4-(4-methoxyphenyl)-4-oxobut-2-enoyl)piperazine-1-carboxylate] |  | 100 to 1000 |
| CC(C)(C)OC(=O)N1CCN(C(=O)/C=C/C(=O)c2ccccc2Br)CC1 [Compound 154, tert-butyl (E)-4-(4-(2-bromophenyl)-4-oxobut-2-enoyl)piperazine-1-carboxylate] |  | 100 to 1000 |
| CC(C)(C)OC(=O)N1CCN(C(=O)/C=C/C(=O)c2cccc(F)c2)CC1 [Compound 155, tert-butyl (E)-4-(4-(3-fluorophenyl)-4-oxobut-2-enoyl)piperazine-1-carboxylate] |  | 100 to 1000 |
| COc1cccc(C(=O)/C=C/C(=O)N2CCN(C(=O)OC(C)(C)C)CC2)c1 [Compound 156, tert-butyl (E)-4-(4-(3-methoxyphenyl)-4-oxobut-2-enoyl)piperazine-1-carboxylate] | < 100 |  |
| Cc1cccc(C(=O)/C=C/C(=O)N2CCN(C(=O)OC(C)(C)C)CC2)c1 [Compound 157, tert-butyl (E)-4-(4-oxo-4-(m-toly1)but-2-enoyl)piperazine-1-carboxylate] | < 100 |  |
| CC(C)(C)OC(=O)N1CCN(C(=O)/C=C/C(=O)c2ccccc2Cl)CC1 [Compound 161, tert-butyl (E)-4-(4-(2-chlorophenyl)-4-oxobut-2-enoyl)piperazine-1-carboxylate] |  | 100 to 1000 |
| CC(C)(C)OC(=O)N1CCN(C(=O)/C=C/C(=O)c2cccc(C(F)(F)F)c2)CC1 [Compound 162, tert-butyl (E)-4-(4-oxo-4-(3-(trifluoromethyl)phenyl)but-2-enoyl)piperazine-1-carboxylate] | < 100 |  |
| CC(C)(C)OC(=O)N1CCN(C(=O)/C=C/C(=O)c2cccc(Br)c2)CC1 [Compound 163, tert-butyl (E)-4-(4-(3-bromophenyl)-4-oxobut-2-enoyl)piperazine-1-carboxylate] | < 100 |  |
| CC(C)(C)OC(=O)N1CCN(C(=O)/C=C/C(=O)c2ccc(Br)cc2)CC1 [Compound 164, tert-butyl (E)-4-(4-(4-bromophenyl)-4-oxobut-2-enoyl)piperazine-1-carboxylate] | < 100 |  |
| COc1ccc(C(=O)/C=C(\C)C(=O)N2CCN(C(=O)OC(C)(C)C)CC2)cc1 [Compound 166, tert-butyl (E)-4-(4-(4-methoxyphenyl)-2-methyl-4-oxobut-2-enoyl)piperazine-1-carboxylate] | 10000 to 50000 |  |
| CC(C)(C)OC(=O)N1CCN(C(=O)/C=C/C(=O)c2ccc3c(c2)OCCO3)CC1 [Compound 400, tert-butyl (E)-4-(4-(2,3-dihydrobenzo[b][1,4]dioxin-6-y1)-4-oxobut-2-enoy1)piperazine-1-carboxylate] |  | 100 to 1000 |
| CC(C)(C)OC(=O)N1CCN(C(=O)/C=C/C(=O)c2ccc3c(c2)NC(=O)CO3)CC1 [Compound 401, tert-butyl (E)-4-(4-oxo-4-(3-oxo-3,4-dihydro-2H-benzo[b][1,4]oxazin-6-yl)but-2-enoyl)piperazine-1-carboxylate] | < 100 |  |

| Structure (SMILES) | IC50 [nM] | IC50 [1] [nM] |
| --- | --- | --- |
| COc1ccc(C(=O)/C=C/C(=O)N2CCN(C(=O)OC(C)(C)C)CC2)cn1 [Compound 402, tert-butyl (E)-4-(4-(6-methoxypyridin-3-yl)-4-oxobut-2-enoyl)piperazine-1-carboxylate] |  | 100 to 1000 |
| Cn1cc(C(=O)/C=C/C(=O)N2CCN(C(=O)OC(C)(C)C)CC2)ccc1=O [Compound 403, tert-butyl (E)-4-(4-(1-methyl-6-oxo-1,6-dihydropyridin-3-y1)-4-oxobut-2-enoyl)piperazine-1-carboxylate] |  | 100 to 1000 |
| CC(C)(C)OC(=O)N1CCN(C(=O)/C=C/C(=O)c2ccc3c(c2)OCC3)CC1 [Compound 404, tert-butyl (E)-4-(4-(2,3-dihydrobenzofuran-6-yl)-4-oxobut-2-enoyl)piperazine-1-carboxylate] | < 100 |  |
| CC(C)(C)OC(=O)N1CCN(C(=O)/C=C/C(=O)c2ccc3c(c2)CCO3)CC1 [Compound 405, tert-butyl (E)-4-(4-(2,3-dihydrobenzofuran-5-y1)-4-oxobut-2-enoyl)piperazine-1-carboxylate] |  | 100 to 1000 |
| Cc1ccc(C(=O)/C=C/C(=O)N2CCN(C(=O)OC(C)(C)C)CC2)cc1 [Compound 406, tert-butyl (E)-4-(4-oxo-4-(p-tolyl)but-2-enoyl)piperazine-1-carboxylate] |  | 100 to 1000 |
| Cc1ccccc1C(=O)/C=C/C(=O)N1CCN(C(=O)OC(C)(C)C)CC1 [Compound 407, tert-butyl (E)-4-(4-oxo-4-(o-tolyl)but-2-enoyl)piperazine-1-carboxylate] | < 100 |  |
| C#CCCCCC(=O)N1CCN(C(=O)/C=C/C(=O)c2ccc(OC)cc2)CC1 [Compound 408, (E)-1-(4-(hept-6-ynoyl)piperazin-1-y1)-4-(4-methoxyphenyl)but-2-ene-1,4-dione] |  | 100 to 1000 |
| C#CCOCCC(=O)N1CCN(C(=O)/C=C/C(=O)c2ccc(OC)cc2)CC1 [Compound 409, (E)-1-(4-methoxyphenyl)-4-(4-(3-(prop-2-yn-1-yloxy)propanoyl)piperazin-1-yl)but-2-ene-1,4-dione] |  | 100 to 1000 |
| COc1ccc(C(=O)/C=C\C(=O)N2CCN(C(=O)OC(C)(C)C)CC2)cc1 [Compound 411, tert-butyl (Z)-4-(4-(4-methoxyphenyl)-4-oxobut-2-enoyl)piperazine-1-carboxylate] | 10000 to 50000 |  |
| COc1ccc(C(=O)/C=C/C(=O)N2CCN(C(=O)OC(C)(C)C)CC2)c(F)c1 [Compound 412, tert-butyl (E)-4-(4-(2-fluoro-4-methoxyphenyl)-4-oxobut-2-enoyl)piperazine-1-carboxylate] |  | 100 to 1000 |
| COc1cc(F)ccc1C(=O)/C=C/C(=O)N1CCN(C(=O)OC(C)(C)C)CC1 [Compound 413, tert-butyl (E)-4-(4-(4-fluoro-2-methoxyphenyl)-4-oxobut-2-enoyl)piperazine-1-carboxylate] |  | 100 to 1000 |
| COc1ccc(C(=O)/C=C/C(=O)N2CCN(C(=O)OC(C)(C)C)CC2)cc1F [Compound 414, tert-butyl (E)-4-(4-(3-fluoro-4-methoxyphenyl)-4-oxobut-2-enoyl)piperazine-1-carboxylate] | < 100 |  |
| CC(C)(C)OC(=O)N1CCN(C(=O)/C=C/C(=O)c2ccccc2C#N)CC1 [Compound 415, tert-butyl (E)-4-(4-(2-cyanophenyl)-4-oxobut-2-enoyl)piperazine-1-carboxylate] | < 100 |  |
| CC(C)(C)OC(=O)N1CCN(C(=O)/C=C/C(=O)c2ccc(C#N)cc2)CC1 [Compound 416, tert-butyl (E)-4-(4-(4-cyanophenyl)-4-oxobut-2-enoyl)piperazine-1-carboxylate] | < 100 |  |
| CC(C)(C)OC(=O)N1CCN(C(=O)/C=C/C(=O)c2cccc(C#N)c2)CC1 [Compound 417, tert-butyl (E)-4-(4-(3-cyanophenyl)-4-oxobut-2-enoyl)piperazine-1-carboxylate] |  | 100 to 1000 |
| COc1ccc(C(=O)/C=C/C(=O)N2CCN(C(=O)OC(C)(C)C)CC2)c(Cl)c1 [Compound 418, tert-butyl (E)-4-(4-(2-chloro-4-methoxyphenyl)-4-oxobut-2-enoyl)piperazine-1-carboxylate] |  | 100 to 1000 |
| C#CCOc1ccc(C(=O)/C=C/C(=O)N2CCN(C(=O)OC(C)(C)C)CC2)cc1 [Compound 419, tert-butyl (E)-4-(4-oxo-4-(4-(prop-2-yn-1-yloxy)phenyl)but-2-enoyl)piperazine-1-carboxylate] |  | 100 to 1000 |
